In patent publication US9102688B2, “Sulfonaminoquinoline hepcidin antagonists” (Vifor (International) AG, priority 2011, dated 2015):

target: T1, human ferroportin (Homo sapiens, UniProt Q9NP59); assay: ferroportin internalization assay (inhibition of hepcidin-induced internalization of Fpn); type: cell-based; details: MDCK-FPN-HaloTag cells, 100 nM hepcidin, overnight incubation; concentration range from 0.04 to 40 μM
T1 construct: expressed in transfected cells
T1 sequence (Q9NP59 1-571): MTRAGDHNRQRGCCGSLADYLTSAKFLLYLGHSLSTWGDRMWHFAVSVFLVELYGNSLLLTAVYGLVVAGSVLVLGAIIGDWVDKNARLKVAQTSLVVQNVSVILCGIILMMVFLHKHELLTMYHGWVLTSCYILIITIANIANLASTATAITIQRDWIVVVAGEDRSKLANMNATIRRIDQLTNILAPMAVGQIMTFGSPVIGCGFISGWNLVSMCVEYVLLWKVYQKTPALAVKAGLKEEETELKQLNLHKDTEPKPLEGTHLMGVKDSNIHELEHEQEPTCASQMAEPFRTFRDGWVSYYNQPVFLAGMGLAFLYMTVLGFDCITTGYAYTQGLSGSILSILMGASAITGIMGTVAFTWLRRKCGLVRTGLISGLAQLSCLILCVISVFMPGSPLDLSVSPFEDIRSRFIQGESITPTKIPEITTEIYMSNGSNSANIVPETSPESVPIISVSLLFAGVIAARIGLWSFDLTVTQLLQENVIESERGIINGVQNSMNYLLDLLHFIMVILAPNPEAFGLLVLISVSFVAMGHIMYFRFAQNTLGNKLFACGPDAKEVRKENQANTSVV
Protocol: The hepcidin-antagonistic action of the sulfonaminoquinoline compounds of the present invention was determined by means of the “ferroportin internalization assay” described in the following.
Organic compounds of low molecular weight which counteract the biological actions of hepcidin on its receptor, the iron exporter ferroportin (Fpn), were identified on the basis of their ability to inhibit hepcidin-induced internalization of Fpn in living cells. For this purpose, a stable cell line (Madin-Darby canine kidney, MDCK) was produced which constitutively expresses human ferroportin fused recombinantly at its C terminus with a fluorescent reporter protein (HaloTag®, Promega Corp.). The internalization of Fpn was monitored by labelling these cells with fluorescent ligands (HaloTag®-TMR, tetramethylrhodamine) which join covalently on to the HaloTag reporter gene fused with the Fpn. […] Optimized image analysis algorithms were used to ascertain the cell surface and to quantify the corresponding membrane fluorescence associated with the Fpn-HaloTag fusion protein. This assay allows a quantitative image-based analysis in order to quickly evaluate compounds which can block hepcidin-induced internalization of Fpn. This assay is a direct in vitro pendant of the in vivo action mechanism proposed for medicament candidates and is therefore suitable as an initial assay with a high throughput for identifying compounds which counteract the action of hepcidin on its receptor ferroportin.
• 7,500 cells per well (MDCK-FPN-HaloTag) were transinoculated in 50 μl of DMEM medium (Dulbeccos Modified Eagle Medium with 10% foetal bovine serum (FBS), which contained 1% penicillin, 1% streptomycin and 450 μg/ml of G-418) in microtitre plates with 384 wells (384 Cell carrier plates, Perkin Elmer, cat. no. 6007430), followed by incubation overnight at 37° C./5% CO2. • The volume of the medium was reduced to 10 μl, and 10 μl of 5 μM HaloTag-TMR ligands (Promega, cat. no. G 8251) were added in DMEM medium in order to stain the Fpn-HaloTag fusion protein. • 15 min incubation at 37° C./5% CO2 • The HaloTag-TMR ligand was removed and the cells were washed with fresh DMEM medium and the volume was reduced to 20 μl of DMEM medium. • 3 μl per well of a solution of the test compound (dissolved DMSO) were added ([…]). • 7 μl of […] hepcidin (Peptides International, cat. no. PLP-4392-s, 100 μM stock solution diluted in water in DMEM medium) were added per well up to a final hepcidin concentration of 100 nM. • The cells were incubated overnight at 37° C./5% CO2. • The cells were fixed by adding paraformaldehyde (PFA, Electron Microscopy Sciences, cat. no. 15710-S) directly to the cells up to a final concentration of 4%, followed by incubation at room temperature for 15-20 minutes. • The PFA solution was removed and the cells were washed with PBS (phosphate-buffered saline solution), in each case 30 μl remaining in the plate. • 20 μl of Draq5 (Biostatus, cat. no. DR 51000) were added up to a final concentration of 2.5 μM in order to stain the cell nuclei, and the plates were sealed with a foil plate seal. • The plates were analysed with the Opera Plate Imager (Opera Confocal Plate Imager, Perkin Elmer) with 7 images per well; 440 ms exposure time per image, […] focal point height.

| Compound | IC50 |
| --- | --- |
| O=S(=O)(Nc1cc(OC(F)(F)F)cc2cccnc12)c1ccc(C(F)(F)F)nc1 [Example 232, 6-Trifluoromethyl-pyridine-3-sulfonic acid (6-trifluoromethoxy-quinolin-8-yl)-amide] | 12.5 µM |
| O=S(=O)(Nc1cccc2cccnc12)c1c(Cl)cc(Cl)cc1Cl [Example 47, 2,4,6-Trichloro-N-quinolin-8-yl-benzenesulfonamide] | 0.857 µM |
| Nc1ccccc1S(=O)(=O)Nc1cccc2cccnc12 [Example 8, 2-Amino-N-quinolin-8-yl-benzenesulfonamide] | 20.8 µM |
| O=S1(=O)Nc2c(ccc3cccnc23)CN1c1ccccc1 [Example 113, 2-Phenyl-1,4-dihydro-2H-3-thia-2,4,5-triaza-phenanthrene 3,3-dioxide] | 0.46 µM |
| CN(C)C(=O)c1ccnc2c3c(ccc12)-c1ccccc1S(=O)(=O)N3 [Example 541, 6,6-Dioxo-5,6-dihydro-6λ*6*-thia-4,5-diaza-chrysene-1-carboxylic acid dimethylamide] | 21 µM |
| O=S1(=O)Nc2c(ccc3cccnc23)-c2ccccc21 [Example 2, 5H-6-Thia-4,5-diaza-chrysene 6,6-dioxide] | 2.9 µM |
| COc1ccc(C2c3ccc4cccnc4c3NS(=O)(=O)N2C)c(OC)c1 (stereo not shown) [Example 394, 1-(2,4-Dimethoxy-phenyl)-2-methyl-1,4-dihydro-2H-3-thia-2,4,5-triaza-phenanthrene 3,3-dioxide] | 1.07 µM |
| CNC(=O)c1ccc2c(c1)-c1ccc3cccnc3c1NS2(=O)=O [Example 522, 6,6-Dioxo-5,6-dihydro-6λ*6*-thia-4,5-diaza-chrysene-9-carboxylic acid methylamide] | 13.2 µM |
| O=S(=O)(Nc1ccc(C(F)(F)F)c2cccnc12)c1ccccn1 [Example 234, Pyridine-2-sulfonic acid (5-trifluoromethyl-quinolin-8-yl)-amide] | 0.46 µM |
| O=C(c1ccc2c(c1)-c1cc(Cl)c3cccnc3c1NS2(=O)=O)N1CCC(O)C1 (stereo not shown) [Example 531, (12-Chloro-6,6-dioxo-5,6-dihydro-6λ*6*-thia-4,5-diaza-chrysen-9-yl)-(3-hydroxy-pyrrolidin-1-yl)-methanone] | 15 µM |
| CNC(=O)c1ccnc2c3c(ccc12)-c1ccccc1S(=O)(=O)N3 [Example 542, 6,6-Dioxo-5,6-dihydro-6λ*6*-thia-4,5-diaza-chrysene-1-carboxylic acid methylamide] | 4.77 µM |
| O=S1(=O)Nc2c(cc(NCCN3CCOCC3)c3cccnc23)-c2ccccc21 [Example 547, (6,6-Dioxo-5,6-dihydro-6λ*6*-thia-4,5-diaza-chrysen-12-yl)-(2-morpholin-4-yl-ethyl)-amine] | 22 µM |
| O=S(=O)(Nc1cccc2cccnc12)c1cnccn1 [Example 230, Pyrazine-2-sulfonic acid quinolin-8-ylamide] | 1.91 µM |
| O=S1(=O)Nc2c(cc(C(F)(F)F)c3cccnc23)-c2cc(Cl)ccc21 [Example 312, 9-Chloro-12-trifluoromethyl-5H-6-thia-4,5-diaza-chrysene 6,6-dioxide] | 8.51 µM |
| O=S(=O)(Nc1cccc2cccnc12)c1cnc2ccccc2c1 [Example 88, Quinoline-3-sulfonic acid quinolin-8-ylamide] | 2.06 µM |
| COc1ccc2c(c1)S(=O)(=O)Nc1c-2ccc2cccnc12 [Example 326, 8-Methoxy-5H-6-thia-4,5-diaza-chrysene 6,6-dioxide] | 2.11 µM |
| O=S1(=O)Nc2c(ccc3cccnc23)-c2cc(N3CCC(O)C3)ccc21 (stereo not shown) [Example 506, 1-(6,6-Dioxo-5,6-dihydro-6λ*6*-thia-4,5-diaza-chrysen-9-yl)-pyrrolidin-3-ol] | 2.01 µM |

| Compound | IC50 |
| --- | --- |
| Cc1ccc(S(=O)(=O)Nc2ccc(Cl)c3cccnc23)c(N)c1 [Example 79, 2-Amino-N-(5-chloro-quinolin-8-yl)-4-methyl-benzenesulfonamide] | 1.22 µM |
| COC(=O)c1ccnc2c3c(ccc12)-c1ccccc1S(=O)(=O)N3 [Example 319, 6,6-Dioxo-5,6-dihydro-6λ*6*-thia-4,5-diaza-chrysene-1-carboxylic acid methyl ester] | 2.94 µM |
| Cc1c(F)cccc1S(=O)(=O)Nc1cccc2cccnc12 [Example 83, 3-Fluoro-2-methyl-N-quinolin-8-yl-benzenesulfonamide] | 1.5 µM |
| O=S(=O)(Nc1ccccc1)Nc1cccc2cccnc12 [Example 46, N-phenyl(quinolin-8-ylamino)sulfonamide] | 2.3 µM |
| Cc1cc2c(cc1F)-c1ccc3cccnc3c1NS2(=O)=O [Example 331, 9-Fluoro-8-methyl-5H-6-thia-4,5-diaza-chrysene 6,6-dioxide] | 3.24 µM |
| COc1ccc2c(c1)-c1ccc3cccnc3c1NS2(=O)=O [Example 105, 9-Methoxy-5H-6-thia-4,5-diaza-chrysene 6,6-dioxide] | 1.58 µM |
| O=S1(=O)Nc2c(cc(N3CCCCC3)c3cccnc23)-c2ccccc21 [Example 551, 12-Piperidin-1-yl-5H-6-thia-4,5-diaza-chrysene 6,6-dioxide] | 1.56 µM |
| CC(C)C(=O)Nc1ccccc1S(=O)(=O)Nc1cccc2cccnc12 [Example 48, N-[2-(Quinolin-8-ylsulfamoyl)-phenyl]-isobutyramide] | 24.6 µM |
| COc1ccccc1C1c2ccc3cccnc3c2NS(=O)(=O)N1C (stereo not shown) [Example 384, 1-(2-Methoxy-phenyl)-2-methyl-1,4-dihydro-2H-3-thia-2,4,5-triaza-phenanthrene 3,3-dioxide] | 1.87 µM |
| CN1C(c2cccc(F)c2)c2ccc3cccnc3c2NS1(=O)=O (stereo not shown) [Example 389, 1-(3-Fluoro-phenyl)-2-methyl-1,4-dihydro-2H-3-thia-2,4,5-triaza-phenanthrene 3,3-dioxide] | 0.72 µM |
| Cc1cccc(S(=O)(=O)Nc2cccc3cccnc23)c1 [Example 19, 3-Methyl-N-quinolin-8-yl-benzenesulfonamide] | 2.09 µM |
| COC(=O)c1ccc2c(c1)-c1ccc3cccnc3c1NS2(=O)=O [Example 307, 6,6-Dioxo-5,6-dihydro-6λ*6*-thia-4,5-diaza-chrysene-9-carboxylic acid methyl ester] | 4.18 µM |
| O=S(=O)(Nc1cccc2cccnc12)c1ccccc1OC(F)(F)F [Example 36, N-Quinolin-8-yl-2-trifluoromethoxy-benzenesulfonamide] | 2.5 µM |
| O=S1(=O)Nc2c(ccc3cccnc23)-c2cc(OC(F)(F)F)ccc21 [Example 333, 9-Trifluoromethoxy-5H-6-thia-4,5-diaza-chrysene 6,6-dioxide] | 1.17 µM |
| CN1C(c2ccc(F)c(Cl)c2)c2ccc3cccnc3c2NS1(=O)=O (stereo not shown) [Example 391, 1-(3-Chloro-4-fluoro-phenyl)-2-methyl-1,4-dihydro-2H-3-thia-2,4,5-triaza-phenanthrene 3,3-dioxide] | 3.7 µM |
| O=S(=O)(Nc1cc(F)cc2cccnc12)c1ccc(Cl)cc1F [Example 95, 4-Chloro-2-fluoro-N-(6-fluoro-quinolin-8-yl)-benzenesulfonamide] | 0.69 µM |
| O=S1(=O)Nc2c(cc(Cl)c3cccnc23)-c2cc(C(F)(F)F)ccc21 [Example 334, 12-Chloro-9-trifluoromethyl-5H-6-thia-4,5-diaza-chrysene 6,6-dioxide] | 6.25 µM |
